Measured values reported in patent US20020137929A1, “1 - (3-heterocyclylphenyl) isothiourea, -isourea, -guanidine and -amidine herbicidal agents” (Intellectual Property Department, BASF Aktiengesellschaft, priority 1998, published 2002).

Columns and labels:
ABUTH (Velvetleaf) = test: Postemergence herbicidal evaluation; format: in vivo, Abutilon theophrasti
Procedure, shortened: (§1)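 Visual 0-9 injury score (stand, vigor, malformation, size, chlorosis, appearance vs untreated) taken four to five weeks post-spray, averaged across repeat tests. Test plants about two weeks old; foliar spray of acetone/water (1:1) with 0.5% surfactant delivering ~0.0156-0.500 kg active/ha.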

GALAP (Galium) [1] = test: Postemergence herbicidal evaluation; format: in vivo, Galium aparine
Procedure, shortened: as §1

GALAP (Galium) [2] = test: Preemergence herbicidal evaluation; format: in vivo, Galium aparine; conditions: rated 4-5 weeks after treatment
Procedure, shortened: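 In this greenhouse assay, monocot and dicot seeds are planted in soil and treated prior to emergence with an aqueous acetone spray (about 0.0156-0.500 kg/ha). Plants are assessed visually against control on a 0-9 scale after 4-5 weeks.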

ORYSAT (Rice, Tebonnet) [3] = test: Rice tolerance to post-transplant applications, flooded paddy conditions (Table III); format: in vivo, Oryza sativa, (L.) Tebonnet
Procedure, shortened: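 Two ten-day-old Tebonnet seedlings transplanted into flooded silt loam (water 1.5 to 3 cm above soil); three days later the water surface was treated with compound in aqueous/acetone 50/50 at about 0.0313 to 0.500 kg/ha. Visual 0-9 injury rating versus control after three to four weeks in greenhouse.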

MOOVA (Monochoria) = test: Postemergence weed control under flooded paddy conditions; format: in vivo, Monochoria vaginalis; conditions: postemergence weeds, 3-4 weeks after treatment
Procedure, shortened: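 With weeds 3 to 5 cm tall and rice at the 1.5 to 2.5 leaf stage, containers were flooded and water held 1.5 to 3 cm above soil. Compounds in 50/50 v/v aqueous/acetone went into the flood water at about 0.0313 to 0.500 kg/ha a.i. Effects were visually rated 0–9 against controls after three to four weeks in the greenhouse.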

ORYSAT (Rice, Tebonnet) [4] = test: Rice tolerance to post-transplant applications, flooded paddy conditions (Table IV); format: in vivo, Oryza sativa, (L.) Tebonnet
Procedure, shortened: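 Post-transplant paddy test in greenhouse: a.i. about 0.0313 to 0.500 kg/ha applied into the flood water. Plants are rated 0-9 for overall appearance relative to control three to four weeks on.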

[5] = 0.1250 kg/ha, post-transplant rice, flooded paddy, rated 3-4 weeks after treatment
[6] = 0.2500 kg/ha, post-transplant rice, flooded paddy, rated 3-4 weeks after treatment
[7] = rate 0.1250 kg/ha, flooded paddy, post-transplant rice, 3-4 weeks after treatment
[8] = rate 0.2500 kg/ha, flooded paddy, post-transplant rice, 3-4 weeks after treatment

Compound | Postemergence herbicidal rating ABUTH (ABUTH (Velvetleaf); Rate 0.0156 kg/ha) | Postemergence herbicidal rating ABUTH (ABUTH (Velvetleaf); Rate 0.0313 kg/ha) | Postemergence herbicidal rating ABUTH (ABUTH (Velvetleaf); Rate 0.0625 kg/ha) | Postemergence herbicidal rating GALAP (GALAP (Galium) [1]; Rate 0.0156 kg/ha) | Postemergence herbicidal rating GALAP (GALAP (Galium) [1]; Rate 0.0313 kg/ha) | Postemergence herbicidal rating GALAP (GALAP (Galium) [1]; Rate 0.0625 kg/ha) | Preemergence herbicidal rating GALAP (GALAP (Galium) [2]; rate 0.0156 kg/ha) | Preemergence herbicidal rating GALAP (GALAP (Galium) [2]; rate 0.0313 kg/ha) | Preemergence herbicidal rating GALAP (GALAP (Galium) [2]; rate 0.0625 kg/ha) | Preemergence herbicidal rating GALAP (GALAP (Galium) [2]; rate 0.1250 kg/ha) | Preemergence herbicidal rating GALAP (GALAP (Galium) [2]; rate 0.2500 kg/ha) | Herbicidal rating ORYSAT (rice tolerance) (ORYSAT (Rice, Tebonnet) [3]; [5]) | Herbicidal rating ORYSAT (rice tolerance) (ORYSAT (Rice, Tebonnet) [3]; [6]) | Herbicidal rating MOOVA (MOOVA (Monochoria); rate 0.1250 kg/ha) | Herbicidal rating MOOVA (MOOVA (Monochoria); rate 0.2500 kg/ha) | Herbicidal rating ORYSAT (rice tolerance) (ORYSAT (Rice, Tebonnet) [4]; [7]) | Herbicidal rating ORYSAT (rice tolerance) (ORYSAT (Rice, Tebonnet) [4]; [8]) | also measured
CCOC(=O)CN1C(=O)C[S+]([O-])/C1=N/c1cc(-n2c(=O)cc(C(F)(F)F)n(C)c2=O)c(F)cc1Cl (centres unmarked) [Compound 45, 2-{{2-Chloro-5-[3,6-dihydro-3-methyl-2,6-dioxo-4-(trifluoromethyl)-1(2H)-pyrimidinyl]-4-fluoro-phenyl}imino}-4-oxo-3-thiazolidineacetic acid, ethyl ester, 1-oxide] | 9.0 | 9.0 | 9.0 | 0.0 | 0.0 | 0.0 | 0.0 | 0.0 | 0.0 | 0.0 | 7.0 | 2.0 | 3.0 | 9.0 | 9.0 | 2.0 | 3.0 | Herbicidal rating ORYSAT (rice tolerance) (ORYSAT (Rice, Tebonnet) [3]; 0.0313 kg/ha, post-transplant rice, flooded paddy, rated 3-4 weeks after treatment): 3.0; Herbicidal rating ORYSAT (rice tolerance) (ORYSAT (Rice, Tebonnet) [3]; 0.0625 kg/ha, post-transplant rice, flooded paddy, rated 3-4 weeks after treatment): 2.0; Herbicidal rating MOOVA (MOOVA (Monochoria); rate 0.0313 kg/ha): 7.0; Herbicidal rating MOOVA (MOOVA (Monochoria); rate 0.0625 kg/ha): 7.0; Herbicidal rating ORYSAT (rice tolerance) (ORYSAT (Rice, Tebonnet) [4]; rate 0.0313 kg/ha, flooded paddy, post-transplant rice, 3-4 weeks after treatment): 3.0; Herbicidal rating ORYSAT (rice tolerance) (ORYSAT (Rice, Tebonnet) [4]; rate 0.0625 kg/ha, flooded paddy, post-transplant rice, 3-4 weeks after treatment): 2.0
O=C(O)CC1SC(=Nc2cc(N3C(=O)C4=C(CCCC4)C3=O)c(F)cc2Cl)N(CC(=O)O)C1=O (centres unmarked) [Compound 48, 2-{[2-Chloro-5-(1-cyclohexene-1,2-dicarboximido)-4-fluorophenyl]imino}-4-oxo-3,5-thiazolidinediacetic acid] | 9.0 | 9.0 | 9.0 | 0.0 | 0.0 | 0.0 | 0.0 | 0.0 | 0.0 | 0.0 | 0.0 | 4.0 | 6.0 | 3.0 | 6.0 | 4.0 | 6.0 | –
Cn1c(C(F)(F)F)cc(=O)n(-c2cc(/N=C3/SCC(=O)N3CC(=O)O)c(Cl)cc2F)c1=O [Compound 52, 2-{{2-Chloro-5-[3,6-dihydro-3-methyl-2,6-dioxo-4-(trifluoromethyl)-1(2H)-pyrimidinyl]-4-fluoro-phenyl}imino}-4-oxo-3-thiazolidineacetic acid] | – | – | – | – | – | – | – | 0.0 | 0.0 | 0.0 | 7.0 | – | – | – | 4.0 | – | – | Postemergence herbicidal rating ABUTH (ABUTH (Velvetleaf); Rate 0.0158 kg/ha): 1.0; Postemergence herbicidal rating ABUTH (ABUTH (Velvetleaf); Rate 0.0315 kg/ha): 9.0; Postemergence herbicidal rating ABUTH (ABUTH (Velvetleaf); Rate 0.0630 kg/ha): 9.0; Postemergence herbicidal rating GALAP (GALAP (Galium) [1]; Rate 0.0158 kg/ha): 1.0; Postemergence herbicidal rating GALAP (GALAP (Galium) [1]; Rate 0.0315 kg/ha): 4.0; Postemergence herbicidal rating GALAP (GALAP (Galium) [1]; Rate 0.0630 kg/ha): 5.0; Herbicidal rating ORYSAT (rice tolerance) (ORYSAT (Rice, Tebonnet) [3]; in vivo): 0.0; Herbicidal rating ORYSAT (rice tolerance) (ORYSAT (Rice, Tebonnet) [4]; in vivo): 0.0
